# Source: US20240252506A1 (Hoffmann-La Roche Inc., priority 2021, published 2024)
# System: Escherichia coli ATCC 25922
# Assay: Minimal Inhibitory Concentration (MIC) determination, broth microdilution (CLSI M07-A10)
# Assay type: cell-based
# Settings: Escherichia coli, ATCC25922, strain Escherichia coli ATCC 25922, 18-24 hours at 35±2° C., lowest concentration for complete growth inhibition (no visible growth), read-out: Escherichia coli growth inhibition MIC
# Outline: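 Broth microdilution per CLSI M07-A10; compounds in 2-fold serial dilutions; inoculum from 0.5 McFarland suspension diluted 1:200 in broth. Incubated 18-24 h at 35±2° C in ambient air; MIC (μg/mL) taken as lowest concentration giving no visible growth.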
row,Compound,MIC
1,"CC(C)(O)c1nc2c(F)c3c(c(F)c2[nH]1)CC(CN1CCC2(CC1)CN(c1cnc4c(n1)NC(=O)CO4)C(=O)O2)C3 [Example 4, 6-[8-[[4,8-difluoro-2-(1-hydroxy-1-methyl-ethyl)-3,5,6,7-tetrahydrocyclopenta[f]benzimidazol-6-yl]methyl]-2-oxo-1-oxa-3,8-diazaspiro[4.5]decan-3-yl]-4H-pyrazino[2,3-b][1,4]oxazin-3-one]",0.5 µg/mL
2,"O=C1COc2ncc(N3CC4(CCN(CC5Cc6c(c(F)c7[nH]c(CN8CCS(=O)(=O)CC8)nc7c6F)C5)CC4)OC3=O)nc2N1 [Example 5, 6-[8-[[2-[(1,1-dioxo-1,4-thiazinan-4-yl)methyl]-4,8-difluoro-3,5,6,7-tetrahydrocyclopenta[f]benzimidazol-6-yl]methyl]-2-oxo-1-oxa-3,8-diazaspiro[4.5]decan-3-yl]-4H-pyrazino[2,3-b][1,4]oxazin-3-one]",2 µg/mL
3,"CN1CCOC(c2nc3c(F)c4c(c(F)c3[nH]2)CC(CN2CCC3(CC2)CN(c2cnc5c(n2)NC(=O)CO5)C(=O)O3)C4)C1 (stereo not drawn) [Example 6, 6-[8-[[4,8-difluoro-2-(4-methylmorpholin-2-yl)-3,5,6,7-tetrahydrocyclopenta[f]benzimidazol-6-yl]methyl]-2-oxo-1-oxa-3,8-diazaspiro[4.5]decan-3-yl]-4H-pyrazino[2,3-b][1,4]oxazin-3-one]",1 µg/mL
4,"CN(C)CCc1nc2c(F)c3c(c(F)c2[nH]1)CC(CN1CCC2(CC1)CN(c1cnc4c(n1)NC(=O)CO4)C(=O)O2)C3 [Example 7, 6-[8-[[2-[2-(dimethylamino)ethyl]-4,8-difluoro-3,5,6,7-tetrahydrocyclopenta[f]benzimidazol-6-yl]methyl]-2-oxo-1-oxa-3,8-diazaspiro[4.5]decan-3-yl]-4H-pyrazino[2,3-b][1,4]oxazin-3-one]",0.125 µg/mL
5,"O=C1COc2ncc(N3CC4(CCN(CC5Cc6c(c(F)c7[nH]c(CN8CCOCC8)nc7c6F)C5)CC4)OC3=O)nc2N1 [Example 8, 6-[8-[[4,8-difluoro-2-(morpholinomethyl)-3,5,6,7-tetrahydrocyclopenta[f]benzimidazol-6-yl]methyl]-2-oxo-1-oxa-3,8-diazaspiro[4.5]decan-3-yl]-4H-pyrazino[2,3-b][1,4]oxazin-3-one]",1 µg/mL
6,"CNCc1nc2c(F)c3c(c(F)c2[nH]1)CC(CN1CCC2(CC1)CN(c1cnc4c(n1)NC(=O)CO4)C(=O)O2)C3 [Example 9, 6-[8-[[4,8-Difluoro-2-(methylaminomethyl)-3,5,6,7-tetrahydrocyclopenta[f]benzimidazol-6-yl]methyl]-2-oxo-1-oxa-3,8-diazaspiro[4.5]decan-3-yl]-4H-pyrazino[2,3-b][1,4]oxazin-3-one]",0.125 µg/mL
7,"NCc1nc2c(F)c3c(c(F)c2[nH]1)CC(CN1CCC2(CC1)CN(c1cnc4c(n1)NC(=O)CO4)C(=O)O2)C3.O=C(O)C(F)(F)F [Example 10, 6-[8-[[2-(aminomethyl)-4,8-difluoro-3,5,6,7-tetrahydrocyclopenta[f]benzimidazol-6-yl]methyl]-2-oxo-1-oxa-3,8-diazaspiro[4.5]decan-3-yl]-4H-pyrazino[2,3-b][1,4]oxazin-3-one; 2,2,2-trifluoroacetic acid]",0.125 µg/mL
8,"O=C(O)C(F)(F)F.O=C1COc2ncc(N3CC4(CCN(CC5Cc6c(c(F)c7[nH]c([C@@H]8CCCN8)nc7c6F)C5)CC4)OC3=O)nc2N1 [Example 11, 6-[8-[[4,8-difluoro-2-[(2S)-pyrrolidin-2-yl]-3,5,6,7-tetrahydrocyclopenta[f]benzimidazol-6-yl]methyl]-2-oxo-1-oxa-3,8-diazaspiro[4.5]decan-3-yl]-4H-pyrazino[2,3-b][1,4]oxazin-3-one; 2,2,2-trifluoroacetic acid]",0.125 µg/mL
9,"CNCc1nc2c(F)c3c(cc2[nH]1)CC(CN1CCC2(CC1)CN(c1cnc4c(n1)NC(=O)CO4)C(=O)O2)C3.O=C(O)C(F)(F)F (stereo not drawn) [Example 12, 6-[8-[[8-fluoro-2-(methylaminomethyl)-1,5,6,7-tetrahydrocyclopenta[f]benzimidazol-6-yl]methyl]-2-oxo-1-oxa-3,8-diazaspiro[4.5]decan-3-yl]-4H-pyrazino[2,3-b][1,4]oxazin-3-one; 2,2,2-trifluoroacetic acid]",0.125 µg/mL
10,"CNCCc1nc2c(F)c3c(c(F)c2[nH]1)CC(CN1CCC2(CC1)CN(c1cnc4c(n1)NC(=O)CO4)C(=O)O2)C3.O=C(O)C(F)(F)F [Example 13, 6-[8-[[4,8-difluoro-2-[2-(methylamino)ethyl]-3,5,6,7-tetrahydrocyclopenta[f]benzimidazol-6-yl]methyl]-2-oxo-1-oxa-3,8-diazaspiro[4.5]decan-3-yl]-4H-pyrazino[2,3-b][1,4]oxazin-3-one; 2,2,2-trifluoroacetic acid]",0.25 µg/mL
11,"O=C(O)C(F)(F)F.O=C1COc2ccc(N3CC4(CCN(CC5Cc6c(c(F)c7[nH]c([C@H]8CCNC8)nc7c6F)C5)CC4)OC3=O)nc2N1 [Example 15, 6-[8-[[4,8-difluoro-2-[(3S)-pyrrolidin-3-yl]-3,5,6,7-tetrahydrocyclopenta[f]benzimidazol-6-yl]methyl]-2-oxo-1-oxa-3,8-diazaspiro[4.5]decan-3-yl]-4H-pyrido[3,2-b][1,4]oxazin-3-one; 2,2,2-trifluoroacetic acid]",0.25 µg/mL
12,"O=C(O)C(F)(F)F.O=C1COc2ncc(N3CC4(CCN(CC5Cc6c(c(F)c7[nH]c(C8CNCCO8)nc7c6F)C5)CC4)OC3=O)nc2N1 (stereo not drawn) [Example 16, 6-[8-[(4,8-difluoro-2-morpholin-2-yl-3,5,6,7-tetrahydrocyclopenta[f]benzimidazol-6-yl)methyl]-2-oxo-1-oxa-3,8-diazaspiro[4.5]decan-3-yl]-4H-pyrazino[2,3-b][1,4]oxazin-3-one; 2,2,2-trifluoroacetic acid]",0.25 µg/mL
13,"CN[C@H](C)c1nc2c(F)c3c(c(F)c2[nH]1)CC(CN1CCC2(CC1)CN(c1cnc4c(n1)NC(=O)CO4)C(=O)O2)C3.O=C(O)C(F)(F)F [Example 17, 6-[8-[[4,8-difluoro-2-[(1R)-1-(methylamino)ethyl]-3,5,6,7-tetrahydrocyclopenta[f]benzimidazol-6-yl]methyl]-2-oxo-1-oxa-3,8-diazaspiro[4.5]decan-3-yl]-4H-pyrazino[2,3-b][1,4]oxazin-3-one; 2,2,2-trifluoroacetic acid]",0.125 µg/mL
14,"O=C(O)C(F)(F)F.O=C1COc2ncc(N3CC4(CCN(CC5Cc6c(c(F)c7[nH]c([C@@H]8COCCN8)nc7c6F)C5)CC4)OC3=O)nc2N1 [Example 18, 6-[8-[[4,8-difluoro-2-[(3R)-morpholin-3-yl]-3,5,6,7-tetrahydrocyclopenta[f]benzimidazol-6-yl]methyl]-2-oxo-1-oxa-3,8-diazaspiro[4.5]decan-3-yl]-4H-pyrazino[2,3-b][1,4]oxazin-3-one; 2,2,2-trifluoroacetic acid]",0.5 µg/mL
15,"CNCc1nc2c(F)c3c(c(F)c2[nH]1)CC(CNC1CC2(C1)CN(c1cnc4c(n1)NC(=O)CO4)C(=O)O2)C3 (stereo not drawn) [Example 19, 6-[2-[[4,8-difluoro-2-(methylaminomethyl)-3,5,6,7-tetrahydrocyclopenta[f]benzimidazol-6-yl]methylamino]-6-oxo-5-oxa-7-azaspiro[3.4]octan-7-yl]-4H-pyrazino[2,3-b][1,4]oxazin-3-one]",0.5 µg/mL
16,"CNCCc1nc2c(F)c3c(c(F)c2n1C)CC(CN1CCC2(CC1)CN(c1cnc4c(n1)NC(=O)CO4)C(=O)O2)C3.O=C(O)C(F)(F)F (stereo not drawn) [Example 20, 6-[8-[[4,8-difluoro-1-methyl-2-[2-(methylamino)ethyl]-6,7-dihydro-5H-cyclopenta[f]benzimidazol-6-yl]methyl]-2-oxo-1-oxa-3,8-diazaspiro[4.5]decan-3-yl]-4H-pyrazino[2,3-b][1,4]oxain-3-one; 2,2,2-trifluoroacetic acid]",0.25 µg/mL
17,"O=C(O)C(F)(F)F.O=C1COc2ncc(N3CC4(CCN(CC5Cc6c(c(F)c7[nH]c([C@@H]8CCC(=O)N8)nc7c6F)C5)CC4)OC3=O)nc2N1 [Example 21, 6-[8-[[4,8-difluoro-2-[(2S)-5-oxopyrrolidin-2-yl]-3,5,6,7-tetrahydrocyclopenta[f]benzimidazol-6-yl]methyl]-2-oxo-1-oxa-3,8-diazaspiro[4.5]decan-3-yl]-4H-pyrazino[2,3-b][1,4]oxazin-3-one; 2,2,2-trifluoroacetic acid]",1 µg/mL
18,"CNCc1nc2cc3c(c(F)c2o1)CC(CN1CCC2(CC1)CN(c1cnc4c(n1)NC(=O)CO4)C(=O)O2)C3.O=C(O)C(F)(F)F (stereo not drawn) [Example 22, 6-[8-[[8-fluoro-2-(methylaminomethyl)-6,7-dihydro-5H-cyclopenta[f][1,3]benzoxazol-6-yl]methyl]-2-oxo-1-oxa-3,8-diazaspiro[4.5]decan-3-yl]-4H-pyrazino[2,3-b][1,4]oxazin-3-one; 2,2,2-trifluoroacetic acid]",0.25 µg/mL
19,"O=C1COc2ncc(N3CC4(CCN(CC5Cc6c(c(F)c7c(nc8n7CCNC8)c6F)C5)CC4)OC3=O)nc2N1 (stereo not drawn) [Example 23, 6-[8-[(10,16-difluoro-2,5,8-triazatetracyclo[7.7.0.02,7.011,15]hexadeca-1(9),7,10,15-tetraen-13-yl)methyl]-2-oxo-1-oxa-3,8-diazaspiro[4.5]decan-3-yl]-4H-pyrazino[2,3-b][1,4]oxazin-3-one]",0.5 µg/mL
20,"O=C1COc2ncc(N3CC4(CCN(CC5Cc6c(c(F)c7[nH]c([C@H]8CCCN8)nc7c6F)C5)CC4)OC3=O)nc2N1 [Example 24, 6-[8-[[4,8-difluoro-2-[(2R)-pyrrolidin-2-yl]-3,5,6,7-tetrahydrocyclopenta[f]benzimidazol-6-yl]methyl]-2-oxo-1-oxa-3,8-diazaspiro[4.5]decan-3-yl]-4H-pyrazino[2,3-b][1,4]oxazin-3-one]",0.125 µg/mL
21,"C[C@@H](N)c1nc2c(F)c3c(c(F)c2[nH]1)CC(CN1CCC2(CC1)CN(c1cnc4c(n1)NC(=O)CO4)C(=O)O2)C3.O=C(O)C(F)(F)F [Example 25, 6-[8-[[2-[(1R)-1-aminoethyl]-4,8-difluoro-3,5,6,7-tetrahydrocyclopenta[f]benzimidazol-6-yl]methyl]-2-oxo-1-oxa-3,8-diazaspiro[4.5]decan-3-yl]-4H-pyrazino[2,3-b][1,4]oxazin-3-one; 2,2,2-trifluoroacetic acid]",≤ 0.06 µg/mL
